# Experimental data: US8288363B2, “Medicaments for anti-herpes virus treatments” (ASE & BIO, priority 2006, dated 2012)
# Tests used:
# Test in all cases: Anti-herpes activity, viability of infected vero cells (neutral red)
# Conditions in all cases: incubation time 72 hours
# [1] = tested on: HSV-2; format: cell-based, herpes simplex virus 2
# Experimental: (§1) This method is based on the principle that living cells absorb neutral red, which is a vital stain. The optical density of the medium was measured at the maximum absorption wavelength of neutral red, that is to say 540 nm, using a spectrophotometer (SpectraCount™, microplate photometer, Packard). The optical density at 540 nm is proportional to the number of living cells in an infected culture (McLaren et al., Antiviral Research, 1983; 3: 223-234 and Langlois et al., Standardization, 1986, 14: 201-211).
# (§2) The effective concentration (EC 50%), that is to say the concentration of the sulphated polysaccharide which enables infection of 50% of the cells of a culture to be inhibited, was measured for each viral strain.
# (§3) The determination of the EC50 was carried out in 96-well microtitre plates in accordance with the following protocol. Vero cells are seeded at a cell density of 3.5·10^4 cells/well in 100 μl of MEM medium containing 8% FCS. For each viral suspension defined by its MOI: • the negative control column was filled with 100 μl of MEM medium with 8% FCS, • the virus control column was filled with 50 μl of viral suspension having the required MOI and with 50 μl of MEM medium with 8% FCS, • the PS3 control column was filled with 50 μl of PS3 having the desired concentration range or with 50 μl of acyclovir (Zovirax 0.05-5 μg/ml • finally, all the other columns were filled successively with 50 μl of PS3 having the required concentration range or with 50 μl of acyclovir (Zovirax 0.05-5 μg/ml) and with 50 μl of the viral suspension having the desired MOI.
# (§4) The EC50 corresponding to the concentration which enables the cytopathic effect of the virus to be reduced by 50% was calculated in accordance with the following formula: […]
# (§5) The anti-herpes activity of PS3 was evaluated and compared on each viral suspension of HSV-1, HSV-1R, HSV-2 and HSV-2R defined by an MOI of 0.01 ID50/cell for a cell concentration of 350,000 cells/ml, after incubation times of 48 and 72 hours.
# (§6) This series of experiments was carried out applying the protocol enabling the EC50 to be determined, as described in Example 3.
# (§7) The therapeutic indices (TI) of PS3, as well as three other reference products, that is to say acyclovir, dextran sulphate and phycarine, were determined in parallel for each viral strain.
# (§8) The therapeutic index (TI) represents the ratio between the maximum non-toxic dose (or a dose inducing a quantified toxicity) and the dose inducing a favourable pharmacological effect.
# [2] = tested on: acyclovir-resistant strain HSV-2R; format: cell-based, herpes simplex virus 2
# Experimental: as §1, §2, §3, §4, §5, §6, §7, §8
# [3] = tested on: HSV-1; format: cell-based, herpes simplex virus 1
# Experimental: as §1, §2, §3, §4, §5, §6, §7, §8
# [4] = tested on: acyclovir-resistant strain HSV-1R; format: cell-based, herpes simplex virus 1
# Experimental: as §1, §2, §3, §4, §5, §6, §7, §8
substance,measurement,setting,value
dextran sulphate [reference compound],Therapeutic index HSV-2,[1],">3,571"
same,Therapeutic index HSV-2R,[2],">4,545"
same,Therapeutic index HSV-1,[3],>868
same,Therapeutic index HSV-1R,[4],>641
